# Measurements published in US11116760B2 (Gilead Sciences, Inc., priority 2018, dated 2021).
# Biological target: α4β7 integrin (Homo sapiens (Human), UniProt P13612+P26010)
# Test: α4β7 Integrin Cell Capture Assay
# Format: cell-based
# Settings: RPMI8866 cells captured on MadCAM-1 extracellular domain-coated plate
# Description: α4β7 Integrin Cell Capture Assay
# The potency of inhibitors in preventing α4β7 integrin interaction with MadCAM-1 was measured by monitoring the capture of α4β7 integrin expressing cells on a recombinant MadCAM-1 extracellular domain-coated plate. […] The plates were then washed with PBS and blocked with 3% BSA for 2 hours before being washed again.
# RPM18866 cells were spun down and re-suspended in assay medium (DMEM+0.5% FBS+0.5 mM MnCl2) at a density of 0.5×10^6 cells/mL. […] The plates were incubated at 37° C. for 1 hour. 50 μL of cells were transferred to the blocked, MadCAM-1-coated plates and incubated for 30 minutes at 37° C. […] The plates were incubated for 90 minutes at room temperature. The plates were then washed 3 times with 70 μL of PBS per well and imaged on a Cellomics ArrayScan instrument. The cells that were bound to the plate were counted and plotted against the compound concentration to determine the EC50 of the test compounds.
# Sequence of α4β7 integrin (P13612 34-1032): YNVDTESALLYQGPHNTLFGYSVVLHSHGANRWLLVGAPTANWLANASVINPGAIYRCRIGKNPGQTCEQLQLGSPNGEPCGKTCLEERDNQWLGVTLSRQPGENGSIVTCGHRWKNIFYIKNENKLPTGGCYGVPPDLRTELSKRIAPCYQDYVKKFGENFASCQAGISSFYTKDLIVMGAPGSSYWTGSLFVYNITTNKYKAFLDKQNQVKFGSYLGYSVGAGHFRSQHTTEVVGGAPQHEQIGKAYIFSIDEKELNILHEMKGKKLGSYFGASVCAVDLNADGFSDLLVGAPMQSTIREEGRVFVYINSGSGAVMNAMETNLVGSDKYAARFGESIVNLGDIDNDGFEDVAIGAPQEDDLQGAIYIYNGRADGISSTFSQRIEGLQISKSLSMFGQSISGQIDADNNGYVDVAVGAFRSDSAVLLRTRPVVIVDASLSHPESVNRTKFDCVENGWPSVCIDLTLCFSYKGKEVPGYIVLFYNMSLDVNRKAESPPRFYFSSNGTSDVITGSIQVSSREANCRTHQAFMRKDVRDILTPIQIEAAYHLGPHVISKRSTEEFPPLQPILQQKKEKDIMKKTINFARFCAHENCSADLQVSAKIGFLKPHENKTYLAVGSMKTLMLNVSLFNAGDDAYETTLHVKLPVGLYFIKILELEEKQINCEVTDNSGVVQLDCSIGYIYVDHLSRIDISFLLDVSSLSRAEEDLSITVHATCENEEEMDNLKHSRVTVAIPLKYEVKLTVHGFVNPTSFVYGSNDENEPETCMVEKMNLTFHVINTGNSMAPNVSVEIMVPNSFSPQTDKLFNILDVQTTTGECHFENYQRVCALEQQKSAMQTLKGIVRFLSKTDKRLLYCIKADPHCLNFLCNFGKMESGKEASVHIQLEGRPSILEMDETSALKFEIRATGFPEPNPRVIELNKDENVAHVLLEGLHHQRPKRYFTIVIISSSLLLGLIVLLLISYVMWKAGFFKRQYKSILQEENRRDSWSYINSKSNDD
# Sequence of α4β7 integrin (P26010 20-798): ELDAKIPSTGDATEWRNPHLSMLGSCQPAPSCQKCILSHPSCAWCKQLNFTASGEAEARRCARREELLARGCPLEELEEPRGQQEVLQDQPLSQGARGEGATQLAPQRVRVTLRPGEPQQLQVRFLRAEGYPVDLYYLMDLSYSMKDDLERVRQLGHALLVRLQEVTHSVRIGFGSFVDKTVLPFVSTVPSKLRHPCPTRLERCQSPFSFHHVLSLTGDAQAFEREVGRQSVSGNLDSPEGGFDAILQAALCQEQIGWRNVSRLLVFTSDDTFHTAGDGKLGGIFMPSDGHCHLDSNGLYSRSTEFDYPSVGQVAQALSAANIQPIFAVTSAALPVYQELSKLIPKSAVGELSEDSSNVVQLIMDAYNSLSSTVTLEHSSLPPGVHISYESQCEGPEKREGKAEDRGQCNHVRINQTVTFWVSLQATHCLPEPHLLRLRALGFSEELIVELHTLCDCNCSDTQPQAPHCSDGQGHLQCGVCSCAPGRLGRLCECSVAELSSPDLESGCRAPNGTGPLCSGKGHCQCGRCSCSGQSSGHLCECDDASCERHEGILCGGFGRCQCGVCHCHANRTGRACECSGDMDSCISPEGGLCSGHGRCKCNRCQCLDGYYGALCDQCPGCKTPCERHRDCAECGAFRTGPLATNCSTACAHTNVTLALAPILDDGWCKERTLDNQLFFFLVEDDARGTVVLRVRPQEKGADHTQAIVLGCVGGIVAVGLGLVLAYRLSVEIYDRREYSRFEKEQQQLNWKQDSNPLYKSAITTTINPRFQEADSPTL
row,EC50 [nM],SMILES
1,0.08,"Cc1cc(N2CCOC[C@@H]2C(F)(F)F)cc(F)c1C(=O)N[C@@H](Cc1ccc(-n2c(=O)c3cncnc3n(C)c2=O)c2ncccc12)C(=O)O [Example 406, (S)-2-(2-fluoro-6-methyl-4-((R)-3-(trifluoromethyl)morpholino)benzamido)-3-(8-(1-methyl-2,4-dioxo-1,4-dihydropyrimido[4,5-d]pyrimidin-3(2H)-yl)quinolin-5-yl)propanoic acid]"
2,0.157,CC[C@@H](Nc1cc(F)c(C(=O)N[C@@H](Cc2ccc(-n3c(=O)c4ccncc4n(C)c3=O)c3ncccc23)C(=O)O)c(F)c1)C(F)(F)F [Example 475]
3,0.117,CCn1c(=O)n(-c2ccc(C[C@H](NC(=O)c3c(C)cc(N4CCOC[C@@H]4C(F)(F)F)cc3F)C(=O)O)c3cccnc23)c(=O)c2ccncc21 [Example 417]
4,0.238,Cc1cc(N2CCOC[C@@H]2C(F)(F)F)cc(F)c1C(=O)N[C@@H](Cc1ccc(-c2c(C)c(C(F)(F)F)cn(C)c2=O)c2ncccc12)C(=O)O [Example 457]
5,0.337,Cc1cc(N2CC(F)(F)C2)c(-c2ccc(C[C@H](NC(=O)c3c(F)cc(N4CCOC[C@@H]4C(F)(F)F)cc3F)C(=O)O)c3cccnc23)c(=O)n1C [Example 476]
6,0.581,Cc1cc(N2CCOC3(CC3)C2)cc(F)c1C(=O)N[C@@H](Cc1ccc(-c2c(C(F)(F)F)cc(C)n(C)c2=O)c2ncccc12)C(=O)O [Example 466]
7,0.093,"Cc1cc(N2CCOC[C@@H]2C(F)(F)F)cc(F)c1C(=O)N[C@@H](Cc1ccc(-c2c(C(F)(F)F)cc(C)n(C)c2=O)c2ncccc12)C(=O)O (atropisomer, axis not shown) [Example 461]"

# Same assay, conditions: Table 1; capture of α4β7 expressing RPM18866 cells on MadCAM-1 extracellular domain-coated plate
row,EC50 [nM],SMILES
1,1.5,"CC[C@@H](Nc1cc(F)c(C(=O)N[C@@H](Cc2ccc(-c3cnc(C)n(C)c3=O)c3ncccc23)C(=O)O)c(F)c1)C(F)(F)F [Example 118, (S)-2-(2,6-difluoro-4-(((R)-1,1,1-trifluorobutan-2-yl)amino)benzamido)-3-(8-(1,2-dimethyl-6-oxo-1,6-dihydropyrimidin-5-yl)quinolin-5-yl)propanoic acid]"
2,31.1,"N#Cc1ccc(-c2ccc(C[C@H](NC(=O)c3c(F)cccc3Cl)C(=O)O)c3cccnc23)c(Cl)c1 [Example 2, (S)-3-(8-(2-chloro-4-cyanophenyl)quinolin-5-yl)-2-(2-chloro-6-fluorobenzamido)propanoic acid]"
3,0.4,"CC[C@@H](N(C)c1cc(F)c(C(=O)N[C@@H](Cc2ccc(-c3c(C(F)(F)F)cc(C)n(C)c3=O)c3ncccc23)C(=O)O)c(F)c1)C(F)(F)F [Example 135, (S)-2-(2,6-difluoro-4-(methyl((R)-1,1,1-trifluorobutan-2-yl)amino)benzamido)-3-(8-(1,6-dimethyl-2-oxo-4-(trifluoromethyl)-1,2-dihydropyridin-3-yl)quinolin-5-yl)propanoic acid]"
4,4.1,"CN(C)c1cccnc1-c1ccc(C[C@H](NC(=O)c2c(F)cc(N3CCOC[C@@H]3C(F)(F)F)cc2F)C(=O)O)c2cccnc12 [Example 101, (S)-2-(2,6-difluoro-4-((R)-3-(trifluoromethyl)morpholino)benzamido)-3-(8-(3-(dimethylamino)pyridin-2-yl)quinolin-5-yl)propanoic acid]"
5,6.2,"O=C(N[C@@H](Cc1ccc(-c2ncc3ccccc3c2C(F)(F)F)c2ncc(F)cc12)C(=O)O)c1c(Cl)cccc1Cl [Example 35, (S)-2-(2,6-dichlorobenzamido)-3-(3-fluoro-8-(4-(trifluoromethyl)isoquinolin-3-yl)quinolin-5-yl)propanoic acid]"
6,56.7,"CC(O)Cc1cc(F)c(C(=O)N[C@@H](Cc2ccc(-c3ccc(C#N)cc3Cl)c3ncccc23)C(=O)O)c(F)c1 (stereo partly drawn) [Example 24, (2S)-3-(8-(2-chloro-4-cyanophenyl)quinolin-5-yl)-2-(2,6-difluoro-4-(2-hydroxypropyl)benzamido)propanoic acid]"
7,2.4,"N#Cc1ccc(-c2ccc(C[C@H](NC(=O)c3c(F)cc(NS(=O)(=O)c4ccc(-c5ccnc(F)c5)cc4)cc3F)C(=O)O)c3cccnc23)c(Cl)c1 [Example 47, (S)-3-(8-(2-chloro-4-cyanophenyl)quinolin-5-yl)-2-(2,6-difluoro-4-((4-(2-fluoropyridin-4-yl)phenyl)sulfonamido)benzamido)propanoic acid]"
8,78.4,"N#Cc1ccc(-c2ccc(C[C@H](NC(=O)c3c(F)cc(N4CCC[C@@H]4C(F)(F)F)cc3F)C(=O)O)c3cccnc23)c(Cl)c1 [Example 76, (S)-3-(8-(2-chloro-4-cyanophenyl)quinolin-5-yl)-2-(2,6-difluoro-4-((R)-2-(trifluoromethyl)pyrrolidin-1-yl)benzamido)propanoic acid]"
9,0.5,"Cc1cc(C(F)(F)F)c(-c2ccc(C[C@H](NC(=O)c3c(F)cc(N4CCOC[C@@H]4C(F)(F)F)cc3F)C(=O)O)c3cccnc23)nc1C [Example 94, (S)-2-(2,6-difluoro-4-((R)-3-(trifluoromethyl)morpholino)benzamido)-3-(8-(5,6-dimethyl-3-(trifluoromethyl)pyridin-2-yl)quinolin-5-yl)propanoic acid]"
10,3.4,"CS(=O)(=O)Nc1cc(F)c(C(=O)N[C@@H](Cc2ccc(-c3ccc(C#N)cc3Cl)c3ncccc23)C(=O)O)c(F)c1 [Example 45, (S)-3-(8-(2-chloro-4-cyanophenyl)quinolin-5-yl)-2-(2,6-difluoro-4-(methylsulfonamido)benzamido)propanoic acid]"
11,1.2,"CC[C@@H](Nc1cc(F)c(C(=O)N[C@@H](Cc2ccc(-c3cc(Cl)c(C)n(C)c3=O)c3ncccc23)C(=O)O)c(F)c1)C(F)(F)F [Example 116, (S)-3-(8-(5-chloro-1,6-dimethyl-2-oxo-1,2-dihydropyridin-3-yl)quinolin-5-yl)-2-(2,6-difluoro-4-(((R)-1,1,1-trifluorobutan-2-yl)amino)benzamido)propanoic acid]"

row,SMILES,EC50 [nM]
1,"N#Cc1ccc(-c2ccc(C[C@H](NC(=O)c3c(F)cc(C(=O)NCC(F)(F)F)cc3F)C(=O)O)c3cccnc23)c(Cl)c1 [Example 28, (S)-3-(8-(2-chloro-4-cyanophenyl)quinolin-5-yl)-2-(2,6-difluoro-4-((2,2,2-trifluoroethyl)carbamoyl)benzamido)propanoic acid]",33.5
2,"CCOCc1cc(OC)c(-c2ccc(C[C@H](NC(=O)c3c(F)cccc3F)C(=O)O)c3cc(C#N)cnc23)c(OC)c1 [Example 36, (S)-3-(3-cyano-8-(4-(ethoxymethyl)-2,6-dimethoxyphenyl)quinolin-5-yl)-2-(2,6-difluorobenzamido)propanoic acid]",21

# Same assay, conditions: Table 2; capture of α4β7 expressing RPM18866 cells on MadCAM-1 extracellular domain-coated plate
row,SMILES,EC50 [nM]
1,C[C@H](O)Cc1cc(F)c(C(=O)N[C@@H](Cc2ccc(-c3ccc(C#N)cc3Cl)c3ncccc23)C(=O)O)c(F)c1 [Example 286],47.3
2,O=C(N[C@@H](Cc1ccc(Oc2nccc3ccccc23)c2ncccc12)C(=O)O)c1c(Cl)cccc1Cl [Example 157],44
3,N#Cc1ccc(-c2ccc(C[C@H](NC(=O)c3c(F)cc(N4CCC(F)(F)CC4)cc3F)C(=O)O)c3cccnc23)c(Cl)c1 [Example 220],45.2
4,O=C(N[C@@H](Cc1ccc(-c2c(Cl)cc(F)cc2Cl)c2ncccc12)C(=O)O)c1c(F)cc(N[C@H](c2ccccc2)C(F)(F)F)cc1F [Example 282],26.8
5,COc1cc(F)c(C(F)(F)F)cc1-c1ccc(C[C@H](NC(=O)c2c(F)cccc2F)C(=O)O)c2cccnc12 [Example 215],29
6,Cn1ccc2c(Cl)c(C(=O)N[C@@H](Cc3ccc(-c4ccc(C#N)cc4Cl)c4ncccc34)C(=O)O)c(Cl)cc21 [Example 285],46.2
7,CC[C@@H](Nc1cc(F)c(C(=O)N[C@@H](Cc2ccc(-c3nccc(C)c3C(F)(F)F)c3ncccc23)C(=O)O)c(F)c1)C(F)(F)F [Example 252],3.1
8,"CC[C@@H](Nc1cc(F)c(C(=O)N[C@@H](Cc2ccc(-c3c(C(F)(F)F)c4cc(N(C)C)ccc4n(C)c3=O)c3ncccc23)C(=O)O)c(F)c1)C(F)(F)F (atropisomer, axis not shown) [Example 302]",9.4
9,CC(O)(c1cc(F)c(C(=O)N[C@@H](Cc2ccc(-c3ccc(C#N)cc3Cl)c3ncccc23)C(=O)O)c(F)c1)C(F)(F)F (stereo partly drawn) [Example 280],86.1

# Continued, values first:
row,EC50 [nM],SMILES
1,18.7,N#Cc1ccc(-c2ccc(C[C@H](NC(=O)c3c(F)cc(N[C@H](c4ccccc4)C(F)F)cc3F)C(=O)O)c3cccnc23)c(Cl)c1 [Example 324]
2,20.1,CCOCc1cc(OC)c(-c2ccc(C[C@H](NC(=O)c3c(F)cc(NC(C)=O)cc3F)C(=O)O)c3cccnc23)c(OC)c1 [Example 329]
3,7.9,CCOCc1cc(OC)c(-c2ccc(C[C@H](NC(=O)c3c(Cl)cc4[nH]c(Cc5ccccc5)cc4c3Cl)C(=O)O)c3cccnc23)c(OC)c1 [Example 297]
4,7.4,CC[C@@H](Nc1cc(F)c(C(=O)N[C@@H](Cc2ccc(-c3nc(C)c(C)nc3C)c3ncccc23)C(=O)O)c(F)c1)C(F)(F)F [Example 295]
5,22.9,N#Cc1ccc(-c2ccc(C[C@H](NC(=O)c3c(F)cc(N[C@H](c4ccc(F)cc4)C(F)(F)F)cc3F)C(=O)O)c3cccnc23)c(Cl)c1 [Example 331]
6,9.4,Cc1nc(-c2ccc(C[C@H](NC(=O)c3c(F)cc(N4CCOC[C@@H]4C(F)(F)F)cc3F)C(=O)O)c3cccnc23)ncc1F [Example 301]
7,7.9,Cc1cc(C(F)(F)F)c(-c2ccc(C[C@H](NC(=O)c3c(F)cc(N4CC[C@H]4C(F)(F)F)cc3F)C(=O)O)c3cccnc23)c(=O)n1C [Example 298]
